Source: patent publication US20260083126A1, “ANTIMICROBIAL COMPOSITIONS” (AHV International B.V., priority 2022, published 2026)
“Also recorded” adds a separate entry of the source.

Tests used:
[1] = system: HepG2 cell line; assay: MTT cytotoxicity test; assay type: cell-based, human; settings: 24 h, 7.8 μM to 1 mM, emulsified with Tween-80/DMSO
Protocol: Scope. As standard tests cytotoxicity is measured on Caco-2 and HepG2 cell lines. Cytotoxicity of mentioned cell lines was determined by measuring the amount of converted MTT (3-(4,5-dimethylthiazol-2-yl)-2,5-diphenyltetrazolium bromide) by a mitochondrial dehydrogenase after exposure of various concentrations of the antimicrobial compounds. In living cells the dehydrogenase converts the soluble MTT into water insoluble purple formazan crystals that can not pass the cell membrane. The higher the metabolic activity of the cell, the more purple crystals are formed, the lower the cytotoxicity of the antimicrobial compound. HepG2 adherent cells were isolated from human liver and show epithelial morphology. Culture condition of the cells were followed based on the standard protocols. HepG2 cell line was cultured in 75-cm^2 culture flasks. Dulbecco's modified Eagle's minimum essential medium (DMEM)+Glutamax, supplemented with 10% (v/v) inactivated fetal calf serum (FCS) (Gibco), and penicillin (100 U/ml.)/streptomycin (100 μg/ml.) was utilized as medium for the growing cells. The cells were preserved in an incubator to provide them with the optimum moisture and temperature (humidified atmosphere of 95% air and 5% CO2 at 37° C. for 72 hours). The cells were grown on flat bottom 96-well plates to the appropriate density to run the experiments. The cells were exposed to increasing concentrations of emulsified test compound (8 concentration, ranging from 7.8 μM to 1 mM) in standard culture medium (Catalogue 31331028, ThemoFischer Scientific) for each cell line. It should be noted that all the experiments were conducted in FBS (Catalog A3840101, ThermoFischer Scientific) and antibiotic free medium. The concentration of Tween-80 and DMSO that is present in the assay to emulsify the antimicrobial compound was in the range from 0,007% to 1%. The cells were incubated for 24 h with emulsified test compound and the assay was performed based on the standard protocol. By the end of the experiment the medium (cell supernatants) was removed and the lysis buffer (0.04 M hydrochloric acid, in propan-2-ol) was added to each well to solubilize the purple formazan crystals. As the final step, the absorbance was recorded by a multi-well reader at 595 nm. Control experiment with emulsifiers Tween 80 and DMSO but without antimicrobial compounds was performed in a same way on both cell lines. The results from all experiments were expressed as mean #standard error of the mean (SEM) conducted in triplicate (three wells/condition) of three independent experiments. Differences between results were statistically evaluated using One-way ANOVA with Bonferroni post-hoc test.

[2] = system: Caco-2 cell line; assay: MTT cytotoxicity test; assay type: cell-based; settings: 24 h, 7.8 μM to 1 mM, emulsified with Tween-80/DMSO
Protocol: Scope. As standard tests cytotoxicity is measured on Caco-2 and HepG2 cell lines. Cytotoxicity of mentioned cell lines was determined by measuring the amount of converted MTT (3-(4,5-dimethylthiazol-2-yl)-2,5-diphenyltetrazolium bromide) by a mitochondrial dehydrogenase after exposure of various concentrations of the antimicrobial compounds. In living cells the dehydrogenase converts the soluble MTT into water insoluble purple formazan crystals that can not pass the cell membrane. The higher the metabolic activity of the cell, the more purple crystals are formed, the lower the cytotoxicity of the antimicrobial compound. Experimental design. The Caco-2 cell line as colorectal adenocarcinoma cells and HepG2 (derived from human liver) were used for the current experiments and were obtained from the ATCC. The intestinal Caco-2 cell line was cultured in 75-cm^2 culture flasks. Minimum Essential Medium (MEM) (Catalog Number(s) 31095029, ThermoFischer Scientific), supplemented with 10% (v/v) inactivated fetal calf serum (FCS) (Gibco), 1% (v/v) nonessential amino acids (Gibco), 1% sodium pyruvate (Gibco) and penicillin (100 U/ml)/streptomycin (100 μg/ml.) was utilized as medium for the growing cells. The cells were preserved in an incubator to provide them with the optimum moisture and temperature (humidified atmosphere of 95% air and 5% CO2 at 37° C. for 72 hours). The Caco-2 cells were seeded in flat bottom 96-well plates for performing the experiments. The cells were grown on flat bottom 96-well plates to the appropriate density to run the experiments. The cells were exposed to increasing concentrations of emulsified test compound (8 concentration, ranging from 7.8 μM to 1 mM) in standard culture medium (Catalogue 31331028, ThemoFischer Scientific) for each cell line. It should be noted that all the experiments were conducted in FBS (Catalog A3840101, ThermoFischer Scientific) and antibiotic free medium. The concentration of Tween-80 and DMSO that is present in the assay to emulsify the antimicrobial compound was in the range from 0,007% to 1%. The cells were incubated for 24 h with emulsified test compound and the assay was performed based on the standard protocol. By the end of the experiment the medium (cell supernatants) was removed and the lysis buffer (0.04 M hydrochloric acid, in propan-2-ol) was added to each well to solubilize the purple formazan crystals. As the final step, the absorbance was recorded by a multi-well reader at 595 nm. […] The results from all experiments were expressed as mean #standard error of the mean (SEM) conducted in triplicate (three wells/condition) of three independent experiments. Differences between results were statistically evaluated using One-way ANOVA with Bonferroni post-hoc test.

| SMILES | cytotoxic effect on HepG2 cells (MTT) [1] | cytotoxic effect on Caco-2 cells (MTT) [2] |
| --- | --- | --- |
| O=S(=O)(Sc1ccc(Cl)cc1)c1ccc(Cl)cc1 [Bis (4-chlorophenyl) thiosulfonate, Bis(4-chlorophenyl) thiosulfonate] | cytotoxic effects | cytotoxic effects |
| Fc1ccc(SSc2ccc(F)cc2)cc1 [Bis (4-fluorophenyl) disulfide, Bis(4-fluorophenyl) disulfide] | cytotoxic effects | cytotoxic effects |
| Clc1ccc(SSc2ccc(Cl)cc2)cc1 [Bis (4-chlorophenyl) disulfide, Bis(4-chlorophenyl) disulfide] | cytotoxic effects | cytotoxic effects |
| CC(C)SS(=O)(=O)C(C)C [Di-isopropyl thiosulfonate] | cytotoxic effects; also recorded: cytotoxicity is lowest | cytotoxic effects; also recorded: cytotoxicity is lowest |
